Source: patent US20100310553A1, “Compositions and Methods for Controlling Hepatitis C Virus Infection” (priority 2006, published 2010)

Key:
[1] = test system: subgenomic HCV replicon of genotype 2a; experiment: HCV RNA replication in Huh7.5 cells harboring a subgenomic HCV replicon of genotype 2a; format: cell-based, Hepatitis C virus; details: subgenomic replicon genotype 2a, RPA
[2] = test system: apoB and triglyceride secretion; details: HepG2 cells; cited from earlier work
HCV [3] = experiment: HCV production: infectivity of media of CP-346086-treated, HCV-infected Huh7.5 cells on naive Huh7.5 cells; format: cell-based, Hepatitis C virus
Procedure: (§1) With reference to FIGS. 14A-14F, studies were carried out to determine the effects of an MTP inhibitor, CP-346086, on lipoprotein production/secretion and HCV production. […] To determine the effect of CP-346086 on HCV production, Huh7.5 cells were infected with HCV at 37° C. for 2 hr and then incubated with varying concentrations of CP-346086 for 4 days. The levels of apoB and apoE in the media were determined by Western blotting. […] The levels of HCV virions released into the media were initially determined by infectivity assay in cell culture. The naïve Huh7.5 cells were infected with HCV-containing media. At 3 days p.i., the levels of HCV NS3 protein and positive-stranded RNA were quantified by Western blotting and RPA, respectively. […] Similarly, CP-346086 lowered the infectious HCV titers by 1, 2, 3, and 4 orders of magnitude (10, 100, 1,000, and 10,000 times) at concentrations of 6.25, 12.5, 25, and 50 μM, respectively, as illustrated in FIG. 14E.

apoB = apoB in media of HCV-infected Huh7.5 cells treated with inhibitor, Western blotting; format: cell-based; details: 1 μM; 4 days
Procedure: as §1

apoE = apoE in media of HCV-infected Huh7.5 cells treated with inhibitor, Western blotting; format: cell-based; details: 4 days
Procedure: as §1

HCV [4] = experiment: HCV production after treatment of HCV-infected cells with commercial inhibitors of lipoprotein assembly and secretion, RPA; format: cell-based, Hepatitis C virus; details: increasing concentrations; positive-strand HCV RNA by RPA, 3 days p.i.
Procedure: These inhibitors were used to treat HCV-infected cells. The culture supernatants were then used to infect naïve Huh7.5 cells. At 3 days p.i., the levels of positive-strand HCV RNA were determined by RPA.

HCV [5] = experiment: HCV infection of Huh7.5 cells in the presence of apoE3 or apoC-I protein; format: cell-based, Hepatitis C virus; details: increasing concentrations (μg/ml); RPA
Procedure: With reference to FIGS. 16A and 16B, the effect of recombinant apolipoprotein E3 (apoE3) and purified apoC-I on HCV infection was investigated. Huh7.5 cells were infected with HCV in the presence of increasing concentrations (μg/ml) of apoE3 or apoC-I, as indicated on the top of the figures. At 3-hr p.i., the HCV-infected cells were washed with 1×PBS twice and were incubated with medium for 3 days. With reference to FIG. 16A, the levels of HCV NS3 protein in the cells infected with HCV in the presence of apoE3 were then determined by Western blot analysis using an NS3-specific monoclonal antibody and a cellular beta-actin protein as an internal control. With reference to FIG. 16B, HCV positive-strand RNA in the cells infected with HCV in the presence of apoC-I were quantified by RPA.

Compound: O=C(Nc1ccc2c(c1)CCN(Cc1ncn[nH]1)C2)c1ccccc1-c1ccc(C(F)(F)F)cc1 [CP-346086]
- HCV RNA replication [1]: no significant effect
- IC50 [2]: 2.6 nM
- lowering of infectious HCV titers (HCV [3]; 6.25 μM): 10 times
- lowering of infectious HCV titers (HCV [3]; 12.5 μM): 100 times
- lowering of infectious HCV titers (HCV [3]; 25 μM): 1,000 times
- lowering of infectious HCV titers (HCV [3]; 50 μM): 10,000 times
- reduction of HCV positive-stranded RNA level (HCV [3]; 50 μM, 3 days p.i., RPA): > 95%
- reduction of HCV NS3 protein level (HCV [3]; 50 μM, 3 days p.i., Western blotting): > 95%
- apoB secretion (apoB): almost completely blocked
- concentration up to which apoE secretion was not reduced (apoE): above 3 μM

Compound: COc1ccc(Cl)cc1C(=O)NCCc1ccc(S(=O)(=O)NC(=O)NC2CCCCC2)cc1 [glybenclamide]
- levels of HCV virion production (HCV [4]): significantly decreased

Compound: COc1ccc([C@@H]2CC(=O)c3c(O)cc(O)cc3O2)cc1O [hesperetin]
- levels of HCV virion production (HCV [4]): significantly decreased

Compound: O=c1c(O)c(-c2ccc(O)c(O)c2)oc2cc(O)cc(O)c12 [quercetin]
- levels of HCV virion production (HCV [4]): significantly decreased

Compound: ApoC-I: purified apoC-I protein (TPDVSSALDKLKEFGNTLEDKARELISRIKQSELSAKMREWFSETFQKVKEKLKIDS; UniProt P02654 27-83, looked up)
- inhibition of HCV infection (HCV positive-strand RNA) (HCV [5]): inhibited HCV infection in a dose-dependent manner
